Results on 13 compounds are retold here after US12528826B2, “[1,4]oxazepino[2,3-c]quinolinone derivatives as BCL6 inhibitors” (Cancer Research Technology Limited, priority 2019, dated 2026).

The test addresses T1, Trx-6×His-BCL6 (human BCL6 BTB domain covering amino-acid sequence 5-129) (Homo sapiens, UniProt P41182).
T1 construct: made in house
Briefly: HTRF assay (BCL6 / BCOR peptide). To be noted: 1 nM Trx-6×His-BCL6, 300 nM BCOR-AF633 peptide, 2 hours incubation at room temperature; read-out: HTRF avg pIC50 (converted). The class given is binding. On the procedure: After 2 hours incubation at room temperature the plate was read on a Pherastar FSX (BMG Labtech) plate reader equipped with 337 nm laser excitation filter, a first emission filter at 620 nm and a second emission filter at 665 nm. The % inhibition at each concentration was calculated by normalising FRET ratio to the appropriate high (DMSO with all reagents) and low (DMSO without BCL6) controls.

As for `Cn1c(=O)c2c(c3cc(Nc4nc(N5CC[C@@H](F)[C@@H](F)C5)ncc4Cl)ccc31)N[C@@H](C1CC1)C(F)(F)CO2` (racemic) [Example 10a, (S)-10-((5-chloro-2-((3S,4R)-3,4-difluoropiperidin-1-yl)pyrimidin-4-yl)amino)-2-cyclopropyl-3,3-difluoro-7-methyl-1,2,3,4-tetrahydro-[1,4]oxazepino[2,3-c]quinolin-6(7H)-one; (S)-10-((5-chloro-2-((3R,4S)-3,4-difluoropiperidin-1-yl)pyrimidin-4-yl)amino)-2-cyclopropyl-3,3-difluoro-7-methyl-1,2,3,4-tetrahydro-[1,4]oxazepino[2,3-c]quinolin-6(7H)-one], the IC50 was 12.3 nM.
Consider `Cn1c(=O)c2c(c3cc(Nc4nc(N5CC[C@@H](F)[C@H](F)C5)ncc4Cl)ccc31)N[C@@H](C1CC1)C(F)(F)CO2` (racemic) [Example 10b, (S)-10-((5-chloro-2-((3S,4S)-3,4-difluoropiperidin-1-yl)pyrimidin-4-yl)amino)-2-cyclopropyl-3,3-difluoro-7-methyl-1,2,3,4-tetrahydro-[1,4]oxazepino[2,3-c]quinolin-6(7H)-one; (S)-10-((5-chloro-2-((3R,4R)-3,4-difluoropiperidin-1-yl)pyrimidin-4-yl)amino)-2-cyclopropyl-3,3-difluoro-7-methyl-1,2,3,4-tetrahydro-[1,4]oxazepino[2,3-c]quinolin-6(7H)-one], for which the IC50 is 15.8 nM.
For `COC1CCCN(c2ncc(Cl)c(Nc3ccc4c(c3)c3c(c(=O)n4C)OCC(F)(F)[C@H](C4CC4)N3)n2)C1` (mixture of isomers) [Example 10c, (S)-10-((5-chloro-2-((R)-3-methoxypiperidin-1-yl)pyrimidin-4-yl)amino)-2-cyclopropyl-3,3-difluoro-7-methyl-1,2,3,4-tetrahydro-[1,4]oxazepino[2,3-c]quinolin-6(7H)-one; (S)-10-((5-chloro-2-((S)-3-methoxypiperidin-1-yl)pyrimidin-4-yl)amino)-2-cyclopropyl-3,3-difluoro-7-methyl-1,2,3,4-tetrahydro-[1,4]oxazepino[2,3-c]quinolin-6(7H)-one], the IC50 was 5.01 nM.
As for `Cn1c(=O)c2c(c3cc(Nc4nc(N5CC[C@@H](F)[C@@H](F)C5)ncc4F)ccc31)N[C@@H](C1CC1)C(F)(F)CO2` (racemic) [Example 10d, (S)-10-((5-fluoro-2-((3S,4R)-3,4-difluoropiperidin-1-yl)pyrimidin-4-yl)amino)-2-cyclopropyl-3,3-difluoro-7-methyl-1,2,3,4-tetrahydro-[1,4]oxazepino[2,3-c]quinolin-6(7H)-one; (S)-10-((5-fluoro-2-((3R,4S)-3,4-difluoropiperidin-1-yl)pyrimidin-4-yl)amino)-2-cyclopropyl-3,3-difluoro-7-methyl-1,2,3,4-tetrahydro-[1,4]oxazepino[2,3-c]quinolin-6(7H)-one], the IC50 is 20.9 nM.
As for `CCC1CCCN(c2ncc(Cl)c(Nc3ccc4c(c3)c3c(c(=O)n4C)OCC(F)(F)[C@H](C4CC4)N3)n2)C1` (mixture of isomers) [Example 11b, (S)-10-((5-chloro-2-((R)-3-ethylpiperidin-1-yl)pyrimidin-4-yl)amino)-2-cyclopropyl-3,3-difluoro-7-methyl-1,2,3,4-tetrahydro-[1,4]oxazepino[2,3-c]quinolin-6(7H)-one:(S)-10-((5-chloro-2-((S)-3-ethylpiperidin-1-yl)pyrimidin-4-yl)amino)-2-cyclopropyl-3,3-difluoro-7-methyl-1,2,3,4-tetrahydro-[1,4]oxazepino[2,3-c]quinolin-6(7H)-one (1:1)], the IC50 is 33.1 nM.
For `CC1CCCCN(c2ncc(Cl)c(Nc3ccc4c(c3)c3c(c(=O)n4C)OCC(F)(F)[C@H](C4CC4)N3)n2)C1` (mixture of isomers) [Example 11c, (S)-10-((5-chloro-2-((R)-3-methylazepan-1-yl)pyrimidin-4-yl)amino)-2-cyclopropyl-3,3-difluoro-7-methyl-1,2,3,4-tetrahydro-[1,4]oxazepino[2,3-c]quinolin-6(7H)-one:(S)-10-((5-chloro-2-((S)-3-methylazepan-1-yl)pyrimidin-4-yl)amino)-2-cyclopropyl-3,3-difluoro-7-methyl-1,2,3,4-tetrahydro-[1,4]oxazepino[2,3-c]quinolin-6(7H)-one (1:1)], the IC50 is 55 nM.
For the compound `CC1CCCN(c2ncc(Cl)c(Nc3ccc4c(c3)c3c(c(=O)n4C)OCC(F)(F)[C@H](C4CC4)N3)n2)CC1` (mixture of isomers) [Example 11d, (S)-10-((5-chloro-2-((R)-4-methylazepan-1-yl)pyrimidin-4-yl)amino)-2-cyclopropyl-3,3-difluoro-7-methyl-1,2,3,4-tetrahydro-[1,4]oxazepino[2,3-c]quinolin-6(7H)-one:(S)-10-((5-chloro-2-((S)-4-methylazepan-1-yl)pyrimidin-4-yl)amino)-2-cyclopropyl-3,3-difluoro-7-methyl-1,2,3,4-tetrahydro-[1,4]oxazepino[2,3-c]quinolin-6(7H)-one (1:1)], the IC50 was 64.6 nM.
Consider `Cn1c(=O)c2c(c3cc(Nc4nc(N5CC(O)CC6(CC6)C5)ncc4Cl)ccc31)N[C@@H](C1CC1)C(F)(F)CO2` (mixture of isomers) [Example 11h, (S)-10-((5-chloro-2-((R)-7-hydroxy-5-azaspiro[2.5]octan-5-yl)pyrimidin-4-yl)amino)-2-cyclopropyl-3,3-difluoro-7-methyl-1,2,3,4-tetrahydro-[1,4]oxazepino[2,3-c]quinolin-6(7H)-one:(S)-10-((5-chloro-2-((S)-7-hydroxy-5-azaspiro[2.5]octan-5-yl)pyrimidin-4-yl)amino)-2-cyclopropyl-3,3-difluoro-7-methyl-1,2,3,4-tetrahydro-[1,4]oxazepino[2,3-c]quinolin-6(7H)-one (1:1)], for which the IC50 is 5.62 nM.
Take `COCC(C)CNc1ncc(Cl)c(Nc2ccc3c(c2)c2c(c(=O)n3C)OCC(F)(F)[C@H](C3CC3)N2)n1` (mixture of isomers) [Example 11m, (S)-10-((5-chloro-2-(((R)-3-methoxy-2-methylpropyl)amino)pyrimidin-4-yl)amino)-2-cyclopropyl-3,3-difluoro-7-methyl-1,2,3,4-tetrahydro-[1,4]oxazepino[2,3-c]quinolin-6(7H)-one:(S)-10-((5-chloro-2-(((S)-3-methoxy-2-methylpropyl)amino)pyrimidin-4-yl)amino)-2-cyclopropyl-3,3-difluoro-7-methyl-1,2,3,4-tetrahydro-[1,4]oxazepino[2,3-c]quinolin-6(7H)-one (1:1)]: the IC50 was 3.89 nM.
As for `Cn1c(=O)c2c(c3cc(Nc4nc(N5CCCC(C(F)F)C5)ncc4Cl)ccc31)N[C@@H](C1CC1)C(F)(F)CO2` (mixture of isomers) [Example 11r, (S)-10-((5-chloro-2-((R)-3-(difluoromethyl)piperidin-1-yl)pyrimidin-4-yl)amino)-2-cyclopropyl-3,3-difluoro-7-methyl-1,2,3,4-tetrahydro-[1,4]oxazepino[2,3-c]quinolin-6(7H)-one:(S)-10-((5-chloro-2-((S)-3-(difluoromethyl)piperidin-1-yl)pyrimidin-4-yl)amino)-2-cyclopropyl-3,3-difluoro-7-methyl-1,2,3,4-tetrahydro-[1,4]oxazepino[2,3-c]quinolin-6(7H)-one (1:1)], the IC50 is 10 nM.
With `CCC1CCN(c2ncc(Cl)c(Nc3ccc4c(c3)c3c(c(=O)n4C)OCC(F)(F)[C@H](C4CC4)N3)n2)C1` (mixture of isomers) [Example 11y, (S)-10-((5-chloro-2-((R)-3-ethylpyrrolidin-1-yl)pyrimidin-4-yl)amino)-2-cyclopropyl-3,3-difluoro-7-methyl-1,2,3,4-tetrahydro-[1,4]oxazepino[2,3-c]quinolin-6(7H)-one:(S)-10-((5-chloro-2-((S)-3-ethylpyrrolidin-1-yl)pyrimidin-4-yl)amino)-2-cyclopropyl-3,3-difluoro-7-methyl-1,2,3,4-tetrahydro-[1,4]oxazepino[2,3-c]quinolin-6(7H)-one (1:1)], the IC50 is 46.8 nM.
For the compound `Cn1c(=O)c2c(c3cc(Nc4nc(N5CCCC(C)(F)C5)ncc4Cl)ccc31)N[C@@H](C1CC1)C(F)(F)CO2` (mixture of isomers) [Example 11z, (S)-10-((5-chloro-2-((R)-3-fluoro-3-methylpiperidin-1-yl)pyrimidin-4-yl)amino)-2-cyclopropyl-3,3-difluoro-7-methyl-1,2,3,4-tetrahydro-[1,4]oxazepino[2,3-c]quinolin-6(7H)-one:(S)-10-((5-chloro-2-((S)-3-fluoro-3-methylpiperidin-1-yl)pyrimidin-4-yl)amino)-2-cyclopropyl-3,3-difluoro-7-methyl-1,2,3,4-tetrahydro-[1,4]oxazepino[2,3-c]quinolin-6(7H)-one (1:1)], the IC50 was 13.2 nM.
For `Cn1c(=O)c2c(c3cc(Nc4nc(N5CCC(C)(O)C5)ncc4Cl)ccc31)N[C@@H](C1CC1)C(F)(F)CO2` (mixture of isomers) [Example 12a, (S)-10-((5-chloro-2-((R)-3-hydroxy-3-methylpyrrolidin-1-yl)pyrimidin-4-yl)amino)-2-cyclopropyl-3,3-difluoro-7-methyl-1,2,3,4-tetrahydro-[1,4]oxazepino[2,3-c]quinolin-6(7H)-one:(S)-10-((5-chloro-2-((S)-3-hydroxy-3-methylpyrrolidin-1-yl)pyrimidin-4-yl)amino)-2-cyclopropyl-3,3-difluoro-7-methyl-1,2,3,4-tetrahydro-[1,4]oxazepino[2,3-c]quinolin-6(7H)-one (1:1)], the IC50 was 6.31 nM.
